Results published in ChEMBL document CHEMBL1201862, “PubChem BioAssay data set” (2004).
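Dose response: 5 concentrations. Exposure: 48 h. Format: 96-well plates. Endpoint: linear interpolation; highest concentration if not reached. GI50: concentration for 50% inhibition of growth.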 The source made the active and inactive calls. Cut-off read from the data, not from the text of the source: active = GI50 up to about 1.1 µM and inactive = higher. Where a SMILES comes first, the peptide text is derived from it. [ ]: non-standard residue; d: D form. The star is where a group is joined. ξ: configuration not given here. ξF = NC(Cc1ccccc1)C(=O)O; Cbz = O=C(OCc1ccccc1)*; Aib = CC(C)(N)C(=O)O; NHNH2 = NN*

Columns and labels:
Test in all cases: NCI tumour cell line growth inhibition, 48 h
[1] = system: HOP-62
[2] = system: HCT-116
[3] = system: MDA-N
[4] = system: K562
[5] = system: TK-10
[6] = system: SK-MEL-2
[7] = system: OVCAR-8
[8] = system: OVCAR-3
[9] = system: MCF7
[10] = system: NCI-H522
[11] = system: MDA-MB-435
[12] = system: M14
[13] = system: COLO 205
[14] = system: OVCAR-4
[15] = system: DU-145
[16] = system: SF-295
[17] = system: UACC-257
[18] = system: HOP-92
[19] = system: T47D
[20] = system: CCRF-CEM

Measured: GI50

Oc1ccc(Cc2cc(Cl)cc(Cl)c2O)cc1Cl
inactive: [1] 19.2 µM | [2] 18.7 µM | [3] 8.93 µM | [4] 15.5 µM | [5] 16.3 µM | [6] 15.5 µM | [7] 19 µM | [8] 18.7 µM | [9] 18.1 µM | [10] 16.7 µM | [11] 8.83 µM | [12] 15.7 µM | [13] 19 µM | [14] 23.3 µM | [15] 10.1 µM | [16] 19 µM | [17] 15.9 µM | [18] 18.2 µM | [19] 18.4 µM

Cn1c(=O)c2c(nc(N)n2C2OC(CO)C(O)C2O)n(C)c1=O (stereo not given)
inactive: [20] > 100 µM | [1] > 100 µM | [2] > 100 µM | [3] > 100 µM | [4] > 100 µM | [5] > 100 µM | [7] > 100 µM | [8] > 100 µM | [9] > 100 µM | [10] > 100 µM | [11] > 100 µM | [12] > 100 µM | [13] > 100 µM | [14] > 100 µM | [15] > 100 µM | [16] > 100 µM | [17] > 100 µM | [18] 61.9 µM | [19] > 100 µM

Cc1sc2nc3n(c(=O)c2c1C)N=C(c1ccccc1)CS3
inactive: [20] > 100 µM | [1] 48.3 µM | [2] > 100 µM | [3] > 100 µM | [4] > 100 µM | [5] > 100 µM | [7] > 100 µM | [8] > 100 µM | [9] > 100 µM | [10] > 100 µM | [11] > 100 µM | [13] > 100 µM | [14] > 100 µM | [15] > 100 µM | [16] 45.4 µM | [17] > 100 µM | [18] > 100 µM | [19] > 100 µM

O=C(Cc1nc2ncccc2[nH]c1=O)c1c[nH]c2ccccc12
inactive: [20] 13.4 µM | [1] 18.7 µM | [2] 22.2 µM | [3] 19.7 µM | [4] 21.4 µM | [5] 16.7 µM | [6] 14.9 µM | [7] 23.4 µM | [8] 18 µM | [9] 16.9 µM | [10] 16.6 µM | [11] 15.9 µM | [12] 21 µM | [13] 16.3 µM | [15] 17.5 µM | [16] 16.5 µM | [17] 19.5 µM | [18] 17.7 µM | [19] 17.6 µM

CC(C)=CC[C@]12CCN(C)[C@H]1N(S(=O)(=O)c1ccccc1)c1ccccc12
inactive: [20] > 50.7 µM | [1] > 45.4 µM | [2] > 44.6 µM | [3] 48.2 µM | [4] > 43.2 µM | [5] > 55.5 µM | [6] 15.5 µM | [7] > 64 µM | [8] > 41 µM | [9] > 42.8 µM | [10] 15.8 µM | [11] > 44.7 µM | [14] 43.6 µM | [15] > 30.8 µM | [16] > 54.7 µM | [17] > 39.5 µM | [18] 3.38 µM | [19] 9.73 µM

CCOC(=O)c1cc(C2(O)CCN(CC(C)CC)C2=O)c(-c2cc(C)no2)[nH]1 (stereo not given)
inactive: [20] > 100 µM | [1] > 100 µM | [2] > 100 µM | [3] > 100 µM | [4] > 100 µM | [6] > 100 µM | [7] > 100 µM | [8] > 100 µM | [9] > 100 µM | [11] > 100 µM | [12] > 100 µM | [13] > 100 µM | [14] > 100 µM | [15] > 100 µM | [16] > 100 µM | [17] > 100 µM | [18] > 100 µM | [19] > 100 µM

CC(C)(NC(=O)OCc1ccccc1)C(=O)NC(Cc1ccccc1)C(=O)NN (stereo not given) (Cbz-[Aib]-[ξF]-NHNH2)
inactive: [20] > 100 µM | [1] > 100 µM | [3] 42.1 µM | [4] > 100 µM | [5] > 100 µM | [6] > 100 µM | [7] > 100 µM | [8] > 100 µM | [9] > 100 µM | [10] > 100 µM | [11] > 100 µM | [12] > 100 µM | [13] > 100 µM | [14] > 100 µM | [15] > 100 µM | [16] > 100 µM | [17] > 100 µM | [18] > 100 µM | [19] > 100 µM
